The target in the test is PD-1/PD-L1 (Homo sapiens (Human), UniProt Q9NZQ7). As to the kind of experiment: PD-1/PD-L1 Homogenous Time-Resolved Fluorescence (HTRF) binding assay. As to conditions: PD-1-Ig (20 nM final)/PD-L1-His (10 nM final) binding assay. The source says:
The ability of the compounds of the invention to bind to PD-L1 was investigated using a PD-1/PD-L1 Homogenous Time-Resolved Fluorescence (HTRF) binding assay.
The interaction of PD-1 and PD-L1 can be assessed using soluble, purified preparations of the extracellular domains of the two proteins. The PD-1 and PD-L1 protein extracellular domains were expressed as fusion proteins with detection tags, for PD-1, the tag was the Fc portion of Immunoglobulin (PD-1-Ig) and for PD-L1 it was the 6 histidine motif (PD-L1-His). All binding studies were performed in an HTRF assay buffer consisting of dPBS supplemented with 0.1% […] bovine serum albumin and 0.05% (v/v) Tween-20. For the h/PD-L1-His binding assay, inhibitors were pre-incubated with PD-L1-His (10 nM final) for 15m in 4 μl of assay buffer, followed by addition of PD-1-Ig (20 nM final) in 1 μl of assay buffer and further incubation for 15 m. HTRF detection was achieved using europium crypate-labeled anti-Ig (1 nM final) and allophycocyanin (APC) labeled anti-His (20 nM final). Antibodies were diluted in HTRF detection buffer and 5 μl was dispensed on top of the binding reaction. The reaction mixture was allowed to equilibrate for 30 minutes and the resulting signal (665 nm/620 nm ratio) was obtained using an EnVision fluorometer. Additional binding assays were established between the human proteins PD-1-Ig/PD-L2-His (20 & 5 nM, respectively) and CD80-His/PD-L1-Ig (100 & 10 nM, respectively).
Recombinant Proteins: Human PD-1 (25-167) with a C-terminal human Fc domain of immunoglobulin G (Ig) epitope tag [hPD-1 (25-167)-3S-IG] and human PD-L1 (18-239) with a C-terminal His epitope tag [hPD-L1(18-239)-TVMV-His] were expressed in HEK293T cells and purified sequentially by ProteinA affinity chromatography and size exclusion chromatography. Human PD-L2-His and CD80-His was obtained through commercial sources.
Homogenous Time-Resolved Fluorescence (HTRF) Assays of Binding of Soluble PD-1 to Soluble PD-L1. Soluble PD-1 and soluble PD-L1 refers to proteins with carboxyl-end truncations that remove the transmembrane-spanning regions and are fused to heterologous sequences, specifically the Fc portion of the human immunoglobuling G sequence (Ig) or the hexahistidine epitope tag (His). All binding studies were performed in an HTRF assay buffer consisting of dPBS supplemented with 0.1% (w/v) bovine serum albumin and 0.05% (v/v) Tween-20. For the PD-1-Ig/PD-L1-His binding assay, inhibitors were pre-incubated with PD-L1-His (10 nM final) for 15m in 4 μl of assay buffer, followed by addition of PD-1-Ig (20 nM final) in 1 μl of assay buffer and further incubation for 15 m. PD-L1 fusion proteins from either human, cynomologous macaques, mouse, or other species were used. HTRF detection was achieved using europium crypate-labeled anti-Ig monoclonal antibody (1 nM final) and allophycocyanin (APC) labeled anti-His monoclonal antibody (20 nM final). Antibodies were diluted in HTRF detection buffer and 5 μl was dispensed on top of binding reaction. The reaction was allowed to equilibrate for 30 minutes and signal (665 nm/620 nm ratio) was obtained using an EnVision fluorometer. Additional binding assays were established between PD-1-Ig/PD-L2-His (20 and 5 nM, respectively), CD80-His/PD-L1-Ig (100 and 10 nM, respectively) and CD80-His/CTLA4-Ig (10 and 5 nM, respectively).
Recombinant Proteins. Carboxyl-truncated human PD-1 (amino acids 25-167) with a C-terminal human Ig epitope tag [hPD-1 (25-167)-3S-IG] and human PD-L1 (amino acids 18-239) with a C-terminal His epitope tag [hPD-L1(19-239)-tobacco vein mottling virus protease cleavage site (TVMV)-His] were expressed in HEK293T cells and purified sequentially by recombinant Protein A affinity chromatography and size exclusion chromatography. Human PD-L2-His (Sino Biologicals), CD80-His (Sino Biologicals), CTLA4-Ig (RnD Systems) were all obtained through commercial sources.
On the technique in general: TR-FRET usually uses a lanthanide donor and a delayed reading to cut background.

Results on 17 compounds are retold here after patent US20250230153A1, “2,3-DIHYDROBENZO[B][1,4]DIOXIN-6-YL CONTAINING COMPOUNDS USEFUL AS IMMUNOMODULATORS” (BRISTOL-MYERS SQUIBB COMPANY, priority 2021, published 2025).

Counter-ions that a name gives are not always drawn.

Sequence of PD-1/PD-L1 (Q9NZQ7 18-239): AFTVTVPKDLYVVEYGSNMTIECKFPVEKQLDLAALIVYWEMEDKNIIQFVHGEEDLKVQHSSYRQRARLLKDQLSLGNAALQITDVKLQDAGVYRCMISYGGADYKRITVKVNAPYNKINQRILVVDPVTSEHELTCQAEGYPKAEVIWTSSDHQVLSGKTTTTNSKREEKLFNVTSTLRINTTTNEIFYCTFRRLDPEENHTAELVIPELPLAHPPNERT

In general, IC50 refers to the concentration needed to halve the response being measured. The low end stands for greater potency, the high end for weaker potency. For the compound `Cc1c(COc2cc(OCCN3CC[C@@H](O)C3)c(CN3CCCC[C@H]3C(=O)O)cc2Cl)cccc1-c1ccc2c(c1)OCCO2` [Example 1023, (S)-1-(5-Chloro-4-((3-(2,3-dihydrobenzo[b][1,4]dioxin-6-yl)-2-methylbenzyl)oxy)-2-(2-((R)-3-hydroxypyrrolidin-1-yl)ethoxy)benzyl)piperidine-2-carboxylic acid], the IC50 came out at 4.6 nM. This counts as single-digit nanomolar.

The compound `Cc1c(COc2cc(OCc3cccc(CN)c3)c(CN3CCCC[C@H]3C(=O)O)cc2Cl)cccc1-c1ccc2c(c1)OCCO2` [Example 1017, (S)-1-(2-((3-(Aminomethyl)benzyl)oxy)-5-chloro-4-((3-(2,3-dihydrobenzo[b][1,4]dioxin-6-yl)-2-methylbenzyl)oxy)benzyl)piperidine-2-carboxylic acid, bis-trifluoroacetic acid salt] gave an IC50 of 20.2 nM.

`Cc1c(COc2cc(OC[C@@H](C)CO)c(CN3CCCC[C@H]3C(=O)O)cc2Cl)cccc1-c1ccc2c(c1)OCCO2` [Example 1034, (S)-1-(5-chloro-4-((3-(2,3-dihydrobenzo[b][1,4]dioxin-6-yl)-2-methylbenzyl)oxy)-2-((S)-3-hydroxy-2-methylpropoxy)benzyl)piperidine-2-carboxylic acid] returned an IC50 of 3.9 nM.

`Cc1c(COc2cc(OCCN3CCCCC3)c(CN3CCCC[C@H]3C(=O)O)cc2Cl)cccc1-c1ccc2c(c1)OCCO2` [Example 1042, (S)-1-(5-Chloro-4-((3-(2,3-dihydrobenzo[b][1,4]dioxin-6-yl)-2-methylbenzyl)oxy)-2-(2-(piperidin-1-yl)ethoxy)benzyl)piperidine-2-carboxylic acid] returned an IC50 of 0.6 nM.

In turn, `Cc1c(COc2cc(OCC3CCC3)c(CN[C@](C)(CO)C(=O)O)cc2Cl)cccc1-c1ccc2c(c1)OCCO2` [Example 1048, (R)-2-((5-chloro-2-(cyclobutylmethoxy)-4-((3-(2,3-dihydrobenzo[b][1,4]dioxin-6-yl)-2-methylbenzyl)oxy)benzyl)amino)-3-hydroxy-2-methylpropanoic acid] showed an IC50 of 11.1 nM.

For `Cc1c(COc2cc(OCCN3CC[C@@H](O)C3)c(CNC(C)(CO)CO)cc2Cl)cccc1-c1ccc2c(c1)OCCO2` [Example 1024, (R)-2-((5-Chloro-4-((3-(2,3-dihydrobenzo[b][1,4]dioxin-6-yl)-2-methylbenzyl)oxy)-2-(2-(3-hydroxypyrrolidin-1-yl)ethoxy)benzyl)amino)-2-methylpropane-1,3-diol], the IC50 amounted to 0.5 nM. Against the preceding compound, the IC50 is about 22-fold lower.

`Cc1c(COc2cc(OCc3cncc(S(=O)(=O)CCC(=O)O)c3)c(CN3CCCC[C@H]3C(=O)O)cc2Cl)cccc1-c1ccc2c(c1)OCCO2` [Example 1012, (S)-1-(2-((5-((2-Carboxyethyl)sulfonyl)pyridin-3-yl)methoxy)-5-chloro-4-((3-(2,3-dihydrobenzo[b]1[1,4]dioxin-6-yl)-2-methylbenzyl)oxy)benzyl)piperidine-2-carboxylic acid] showed an IC50 of 3 nM.

Take `Cc1c(COc2cc(OCCN3CCCCC3)c(CNC(C)(CO)CO)cc2Cl)cccc1-c1ccc2c(c1)OCCO2` [Example 1044, 2-((5-Chloro-4-((3-(2,3-dihydrobenzo[b][1,4]dioxin-6-yl)-2-methylbenzyl)oxy)-2-(2-(piperidin-1-yl)ethoxy)benzyl)amino)-2-methylpropane-1,3-diol]: the IC50 was determined as 2.1 nM.

In the case of `Cc1c(COc2cc(OCc3cncc(C(=O)NS(C)(=O)=O)c3)c(CN3CCCC[C@H]3C(=O)O)cc2Cl)cccc1-c1ccc2c(c1)OCCO2` [Example 1021, (S)-1-(5-Chloro-4-((3-(2,3-dihydrobenzo[b][1,4]dioxin-6-yl)-2-methylbenzyl)oxy)-2-((5-((methylsulfonyl)carbamoyl)pyridin-3-yl)methoxy)benzyl)piperidine-2-carboxylic acid], the IC50 came out at 5.7 nM.

`Cc1c(COc2cc(OC[C@H](C)CO)c(CNC(C)(CO)CO)cc2Cl)cccc1-c1ccc2c(c1)OCCO2` [Example 1033, (R)-2-((5-Chloro-4-((3-(2,3-dihydrobenzo[b][1,4]dioxin-6-yl)-2-methylbenzyl)oxy)-2-(3-hydroxy-2-methylpropoxy)benzyl)amino)-2-methylpropane-1,3-diol] displayed an IC50 of 3.9 nM.

In the case of `Cc1c(COc2cc(OCc3ccnc(NC(=O)N4CCOCC4)c3)c(CN[C@@](C)(CO)C(=O)O)cc2Cl)cccc1-c1ccc2c(c1)OCCO2` [Example 1004, (S)-2-((5-Chloro-4-((3-(2,3-dihydrobenzo[b][1,4]dioxin-6-yl)-2-methylbenzyl)oxy)-2-((2-(morpholine-4-carboxamido)pyridin-4-yl)methoxy)benzyl)amino)-3-hydroxy-2-methylpropanoic acid], the IC50 worked out at 17.3 nM.

In turn, `Cc1c(COc2cc(OCc3cnn(CC#N)c3)c(CN[C@@](C)(CO)C(=O)O)cc2Cl)cccc1-c1ccc2c(c1)OCCO2` [Example 1008, (S)-2-((5-chloro-2-((1-(cyanomethyl)-1H-pyrazol-4-yl)methoxy)-4-((3-(2,3-dihydrobenzo[b][1,4]dioxin-6-yl)-2-methylbenzyl)oxy)benzyl)amino)-3-hydroxy-2-methylpropanoic acid] registered an IC50 of 1.7 nM.

`COC(=O)CCNS(=O)(=O)c1cncc(COc2cc(OCc3cccc(-c4ccc5c(c4)OCCO5)c3C)c(Cl)cc2CN[C@@](C)(CO)C(=O)O)c1` [Example 1018, (S)-2-((5-Chloro-4-((3-(2,3-dihydrobenzo[b][1,4]dioxin-6-yl)-2-methylbenzyl)oxy)-2-((5-(N-(3-methoxy-3-oxopropyl)sulfamoyl)pyridin-3-yl)methoxy)benzyl)amino)-3-hydroxy-2-methylpropanoic acid]: the IC50 amounted to 4 nM. Compared with the last compound, the IC50 is about 2.4-fold higher.

Turning to `Cc1c(COc2cc(OCCN3CCCC(O)(C(F)(F)F)C3)c(CNC(C)(CO)CO)cc2Cl)cccc1-c1ccc2c(c1)OCCO2` (centres unmarked) [Example 1059, 2-((5-Chloro-4-((3-(2,3-dihydrobenzo[b][1,4]dioxin-6-yl)-2-methylbenzyl)oxy)-2-(2-(3-hydroxy-3-(trifluoromethyl)piperidin-1-yl)ethoxy)benzyl)amino)-2-methylpropane-1,3-diol], the IC50 was found to be 2.2 nM.

`Cc1c(COc2cc(OCCN3CCC(O)(C(=O)O)CC3)c(CN3CCCC[C@H]3C(=O)O)cc2Cl)cccc1-c1ccc2c(c1)OCCO2` [Example 1054, (S)-1-(2-(2-(4-Carboxy-4-hydroxypiperidin-1-yl)ethoxy)-5-chloro-4-((3-(2,3-dihydrobenzo[b]1[1,4]dioxin-6-yl)-2-methylbenzyl)oxy)benzyl)piperidine-2-carboxylic acid] yielded an IC50 of 1.8 nM.

Compound `Cc1c(COc2cc(OCCN3CCOCC3)c(CN3CCCC[C@H]3C(=O)O)cc2Cl)cccc1-c1ccc2c(c1)OCCO2` [Example 1038, (S)-1-(5-Chloro-4-((3-(2,3-dihydrobenzo[b][1,4]dioxin-6-yl)-2-methylbenzyl)oxy)-2-(2-morpholinoethoxy)benzyl)piperidine-2-carboxylic acid] yielded an IC50 of 5.7 nM.

Take `Cc1c(COc2cc(OCCN3CCCCC3)c(CN[C@](C)(CO)C(=O)O)cc2Cl)cccc1-c1ccc2c(c1)OCCO2` [Example 1043, (R)-2-((5-Chloro-4-((3-(2,3-dihydrobenzo[b][1,4]dioxin-6-yl)-2-methylbenzyl)oxy)-2-(2-(piperidin-1-yl)ethoxy)benzyl)amino)-3-hydroxy-2-methylpropanoic acid]: the IC50 worked out at 0.4 nM.
